PMC5571522, “Cryptotanshinone inhibition of mammalian target of rapamycin pathway is dependent on oestrogen receptor alpha in breast cancer” (Journal of Cellular and Molecular Medicine, 2017)

Target: T1, oestrogen receptor alpha (ERα) (Homo sapiens, UniProt P03372)
T1 construct: gene ESR1
Assay: HitHunter Estrogen Assay Kit competitive binding (enzyme fragment complementation); supported by ERE-luciferase inhibition in MCF-7 cells

T1 sequence (P03372 whole entry): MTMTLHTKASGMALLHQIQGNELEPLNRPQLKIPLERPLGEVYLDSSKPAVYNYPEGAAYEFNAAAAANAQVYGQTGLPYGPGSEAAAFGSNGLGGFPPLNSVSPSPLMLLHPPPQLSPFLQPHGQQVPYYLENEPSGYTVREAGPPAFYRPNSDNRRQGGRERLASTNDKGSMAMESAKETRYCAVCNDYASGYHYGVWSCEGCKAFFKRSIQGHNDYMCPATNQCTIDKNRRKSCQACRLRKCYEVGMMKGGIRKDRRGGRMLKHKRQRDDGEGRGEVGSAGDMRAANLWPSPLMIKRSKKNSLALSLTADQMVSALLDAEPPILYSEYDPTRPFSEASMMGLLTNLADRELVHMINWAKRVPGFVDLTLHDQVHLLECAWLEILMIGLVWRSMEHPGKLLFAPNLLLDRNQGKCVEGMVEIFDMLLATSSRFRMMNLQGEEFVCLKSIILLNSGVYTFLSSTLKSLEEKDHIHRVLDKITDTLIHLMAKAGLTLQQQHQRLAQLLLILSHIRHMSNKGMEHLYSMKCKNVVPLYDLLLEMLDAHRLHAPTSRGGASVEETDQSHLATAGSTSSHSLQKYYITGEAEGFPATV

C[C@H]1COC2=C1C(=O)C(=O)c1c2ccc2c1CCCC2(C)C [CPT, Cryptotanshinone]
EC50: ~9.68 nM
